# Laboratory results as given in patent publication US6468505B1, “Technique to monitor drug delivery noninvasively in vivo” (Philipp Lang, priority 1997, dated 2002).
# Assays:
# [1] = unencapsulated, free chelate; cited from earlier work
# [2] = NMR relaxometry of GdDTPA-BMA containing liposomes in vitro (inversion recovery T1); format: physicochemical; settings: GdDTPA-BMA in solution of solubilized liposome (0.1% C12E8), 1 mM Gd
# Experimental: NMR relaxometry and magnetic resonance (MR) imaging were performed using a 2.0 Tesla small bore magnet (Bruker Omega 2.0T System, Bruker Instruments, Inc., Fremont, Calif.) equipped with actively shielded gradients (Accustar™ S-150, Bruker Instruments, Inc., Fremont, Calif.) capable of delivering field gradients up to 20 G/cm along each axis (X, Y and Z).
# T1 relaxation rates of various liposome suspensions with a mean diameter of 110 nm were determined by standard inversion recovery measurment. The content of GdDTPA-BMA in liposome suspensions was estimated from NMR relaxometry. An inversion recovery NMR spectroscopy pulse sequence was performed in which a nonselective composite inversion pulse (90x-180y-90x) was applied, followed by a gradient spoiler pulse to eliminate residual coherent in-plane magnetization. After a variable delay time (TI), z-magnetization was sampled by a nonselective 90° radiofrequency pulse and the signal was recorded. The inversion recovery signal profile was obtained from at least forty such measurements in which the TI delay was incremented from 20 ms to a value that was at least 3-fold greater than the T1.
# Mz(TI)/M∞=1−k exp(TI/T1) Eq. 1,
# in which Mz(TI) is the signal intensity measured at a particular value of TI, M∞ is the fully relaxed signal intensity, and k has the value of 2.0 if the inversion pulse is exactly 180°. […]
Relaxivity=ΔR1/[Gd] [2] [s⁻¹ mM⁻¹],Structure (SMILES),biologic half-life [1]
4.07,"CNC(=O)CN(CCN(CCN(CC(=O)[O-])CC(=O)NC)CC(=O)[O-])CC(=O)[O-].[Gd+3] [Gd-DTPA-BMA, Gadolinium-diethylene-triamine-pentaacetic-acid-bis-methylamide]",approximately 30 min
,"O=C([O-])CN(CCN(CC(=O)[O-])CC(=O)O)CCN(CC(=O)[O-])CC(=O)O.[Gd+3] [Gd-DTPA, gadolinium-diethylene triamine pentaacetic acid]",approximately 30 min
